In patent publication US6355799B1, “Substituted benzene compounds, process for their preparation, and herbicidal and defoliant compositions containing them” (ISK Americas Incorporated, priority 1997, dated 2002):

How the values were obtained:
Format in all cases: in vivo
[1] = test system: johnsongrass (Sorghum halepense, SORHA); assay: Post-emerge test, greenhouse herbicide activity screening; details: Sorghum halepense, post-emergence, 336 h, post-emerge, phytotoxicity rating 0-100 at 14 days after application, read-out: Post-emerge Herbicidal Activity SORHA
Outline: (§1)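 Sandy loam pots; pre-emerge: sown 1 d pre-spray, surface-watered after, then bottom-watered. Post-emerge: sown 8–21 d before, 2–3 leaf stage, + 0.25% v/v NIS, bottom-watered. Acetone, 187 l/ha track spray, 15–1000 g ai/ha. 0–100 injury score, day 14.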

[2] = test system: redroot pigweed (Amaranthus retroflexus, AMARE); assay: as above; details: Amaranthus retroflexus, post-emergence, 336 h, post-emerge, phytotoxicity rating 0-100 at 14 days after application, read-out: Post-emerge Herbicidal Activity AMARE
Outline: as §1

[3] = test system: green foxtail (Setaria viridis, SETVI); assay: as above; details: Setaria viridis, post-emergence, 336 h, post-emerge, phytotoxicity rating 0-100 at 14 days after application, read-out: Post-emerge Herbicidal Activity SETVI
Outline: as §1

[4] = test system: large crabgrass (Digitaria sanguinalis, DIGSA); assay: as above; details: Digitaria sanguinalis, post-emergence, 336 h, post-emerge, phytotoxicity rating 0-100 at 14 days after application, read-out: Post-emerge Herbicidal Activity DIGSA
Outline: as §1

[5] = test system: sicklepod (Cassia obtusifolia, CASOB); assay: as above; details: Senna obtusifolia, post-emergence, 336 h, post-emerge, phytotoxicity rating 0-100 at 14 days after application, read-out: Post-emerge Herbicidal Activity CASOB
Outline: as §1

[6] = test system: velvetleaf (Abutilon theophrasti, ABUTH); assay: as above; details: Abutilon theophrasti, post-emergence, 336 h, post-emerge, phytotoxicity rating 0-100 at 14 days after application, read-out: Post-emerge Herbicidal Activity ABUTH
Outline: as §1

[7] = test system: lambsquarters (Chenopodium album, CHEAL); assay: as above; details: Chenopodium album, post-emergence, 336 h, post-emerge, phytotoxicity rating 0-100 at 14 days after application, read-out: Post-emerge Herbicidal Activity CHEAL
Outline: as §1

[8] = test system: johnsongrass (Sorghum halepense, SORHA); assay: Pre-emerge test, greenhouse herbicide activity screening; details: Sorghum halepense, pre-emergence, 336 h, pre-emerge, phytotoxicity rating 0-100 at 14 days after application, read-out: Pre-emerge Herbicidal Activity SORHA
Outline: as §1

[9] = test system: ivyleaf morningglory (Ipomoea hederacea, IPOHE); assay: as above; details: Ipomoea, pre-emergence, 336 h, pre-emerge, phytotoxicity rating 0-100 at 14 days after application, read-out: Pre-emerge Herbicidal Activity IPOHE
Outline: as §1

[10] = test system: green foxtail (Setaria viridis, SETVI); assay: as above; details: Setaria viridis, pre-emergence, 336 h, pre-emerge, phytotoxicity rating 0-100 at 14 days after application, read-out: Pre-emerge Herbicidal Activity SETVI
Outline: as §1

[11] = test system: large crabgrass (Digitaria sanguinalis, DIGSA); assay: as above; details: Digitaria sanguinalis, pre-emergence, 336 h, pre-emerge, phytotoxicity rating 0-100 at 14 days after application, read-out: Pre-emerge Herbicidal Activity DIGSA
Outline: as §1

[12] = test system: sicklepod (Cassia obtusifolia, CASOB); assay: as above; details: Senna obtusifolia, pre-emergence, 336 h, pre-emerge, phytotoxicity rating 0-100 at 14 days after application, read-out: Pre-emerge Herbicidal Activity CASOB
Outline: as §1

[13] = test system: barnyardgrass (Echinochloa crus-galli, ECHCG); assay: as above; details: Echinochloa crus-galli, pre-emergence, 336 h, pre-emerge, phytotoxicity rating 0-100 at 14 days after application, read-out: Pre-emerge Herbicidal Activity ECHCG
Outline: as §1

[14] = test system: velvetleaf (Abutilon theophrasti, ABUTH); assay: as above; details: Abutilon theophrasti, pre-emergence, 336 h, pre-emerge, phytotoxicity rating 0-100 at 14 days after application, read-out: Pre-emerge Herbicidal Activity ABUTH
Outline: as §1

[15] = test system: lambsquarters (Chenopodium album, CHEAL); assay: as above; details: Chenopodium album, pre-emergence, 336 h, pre-emerge, phytotoxicity rating 0-100 at 14 days after application, read-out: Pre-emerge Herbicidal Activity CHEAL
Outline: as §1

COc1c(Cl)cc(F)c(-c2nn(C)c(C(F)(F)F)c2Cl)c1NC(=O)C=Cc1ccccc1 [Compound 7-15]
99%: pest or weed control at 250 g/ha ([6]; 250 g ai/ha)
80%: pest or weed control at 250 g/ha ([5]; 250 g ai/ha)
90%: pest or weed control at 250 g/ha ([14]; rate 250 g ai/ha)
20%: pest or weed control at 250 g/ha ([8]; rate 250 g ai/ha)
100%: pest or weed control at 63 g/ha ([2]; 63 g ai/ha) | pest or weed control at 250 g/ha ([2]; 250 g ai/ha) | pest or weed control at 63 g/ha ([6]; 63 g ai/ha) | pest or weed control at 63 g/ha ([7]; 63 g ai/ha) | pest or weed control at 250 g/ha ([7]; 250 g ai/ha) | pest or weed control at 63 g/ha ([15]; rate 63 g ai/ha) | pest or weed control at 250 g/ha ([15]; rate 250 g ai/ha)
10%: pest or weed control at 63 g/ha ([3]; 63 g ai/ha) | pest or weed control at 250 g/ha ([3]; 250 g ai/ha) | pest or weed control at 250 g/ha ([12]; rate 250 g ai/ha) | pest or weed control at 250 g/ha ([13]; rate 250 g ai/ha)
0%: pest or weed control at 63 g/ha ([1]; 63 g ai/ha) | pest or weed control at 250 g/ha ([1]; 250 g ai/ha) | pest or weed control at 63 g/ha ([4]; 63 g ai/ha) | pest or weed control at 250 g/ha ([4]; 250 g ai/ha) | pest or weed control at 63 g/ha ([8]; rate 63 g ai/ha) | pest or weed control at 63 g/ha ([9]; rate 63 g ai/ha) | pest or weed control at 63 g/ha ([10]; rate 63 g ai/ha) | pest or weed control at 63 g/ha ([11]; rate 63 g ai/ha) | pest or weed control at 63 g/ha ([12]; rate 63 g ai/ha) | pest or weed control at 63 g/ha ([13]; rate 63 g ai/ha)
40%: pest or weed control at 63 g/ha ([5]; 63 g ai/ha) | pest or weed control at 63 g/ha ([14]; rate 63 g ai/ha)
50%: pest or weed control at 250 g/ha ([9]; rate 250 g ai/ha)
60%: pest or weed control at 250 g/ha ([10]; rate 250 g ai/ha) | pest or weed control at 250 g/ha ([11]; rate 250 g ai/ha)
